Data as given in patent US9084766B2, “Compounds and compositions for targeting cancer stem cells” (Boston Biomedical, Inc., priority 2010, dated 2015).
“And” between values parts separate entries of the source, which are not always exact repeats. Equal entries are not always repeated. “Also recorded” adds a separate entry of the source. Where two headings read alike, the source gives them in different places.

Experiments:
Format in all cases: in vivo, human
[1] = Phase I clinical trial: plasma pharmacokinetics; design: AUC0-24 hrs: concentration or dose not given beside the values; details: for AUC0-24 hrs: in µM·h
Method: A favorable PK profile with oral bid dosing was also observed. The plasma concentration reached several folds over efficacious concentration (in vitro IC50).
In yet another suitable dosing regimen, Compound 1 is administered with food which delays the Tmax (Table 13).

[2] = tested on: advanced solid tumors; experiment: Phase I clinical trial: tumor response (RECIST 1.1) and progression free survival
Excerpt: As of Feb. 7, 2011, 42 cancer patients with various advanced solid tumors who have failed chemotherapies were enrolled in the study.
Of the 42 patients dosed, 24 were evaluable for tumor response as of Feb. 7, 2011; 16 (16/24 evaluable patients) achieved stable disease (8 to 75+ weeks).

[3] = Compound concentration in patient urine
[4] = patient 0001, total daily dose 20 mg qd, Colon adenocarcinoma
[5] = patient 0013, total daily dose 400 mg bid, Gastric adenocarcinoma
[6] = patient 0014, total daily dose 400 mg bid, Ovarian cancer
[7] = patient 0015, total daily dose 400 mg bid, Colon adenocarcinoma
[8] = patient 0020, total daily dose 600 mg bid, Breast Cancer

In the case of `CC(=O)c1cc2c(o1)C(=O)c1ccccc1C2=O` [Compound 1, 2-acetyl-4H,9H-naphtho[2,3-b]furan-4,9-dione], the clearance from blood ([1]; 20 mg QD (FIG. 21)) is reported as “rapidly cleared from the blood”, the “time plasma concentration sustained at at least 1.5 μM” value ([1]; 320 mg/day dose level) is reported as “over 8 hours” and the plasma concentration sustained ([1]; 320 mg/day dose level, for over 8 hours) is reported as “at least 1.5 μM”. For the same molecule, the Cmax ([1]; Fasting) was 2550 nM, the AUC0-24 hrs ([1]; Fasting) was 20.72 and the “pharmacokinetics (linearity)” value ([1]; doses through about 1000 mg/day) was “apparent linear pharmacokinetics”. It also gave an AUC(0-t) ([1]; human, plasma, oral, 80 mg, total daily dose 80 mg, BID dosing, read-out: AUC0-24) of 7.95 µM·h, an AUC(0-t) ([1]; human, plasma, oral, 160 mg, total daily dose 160 mg, BID dosing, read-out: AUC0-24) of 9.52 µM·h and an AUC(0-t) ([1]; human, plasma, oral, 320 mg, total daily dose 320 mg, BID dosing, read-out: AUC0-24) of 29.8 µM·h. The AUC(0-t) ([1]; human, plasma, oral, 400 mg, total daily dose 400 mg, BID dosing, read-out: AUC0-24) was 53.6 µM·h, the AUC(0-t) ([1]; human, plasma, oral, 600 mg, total daily dose 600 mg, BID dosing, read-out: AUC0-24) was 27.3 µM·h and the AUC(0-t) ([1]; human, plasma, oral, 800 mg, total daily dose 800 mg, BID dosing, read-out: AUC0-24) was 26.4 µM·h. The AUC(0-t) ([1]; human, plasma, oral, 1000 mg, total daily dose 1000 mg, BID dosing, read-out: AUC0-24) was 42.6 µM·h, the AUC(0-t) ([1]; human, plasma, oral, 1400 mg, total daily dose 1400 mg, BID dosing, read-out: AUC0-24) was 28.4 µM·h and the AUC(0-t) ([1]; human, plasma, oral, 2000 mg, total daily dose 2000 mg, BID dosing, read-out: AUC0-24) was 39.1 µM·h. The Cmax ([1]; human, plasma, oral, Fasting) was 2010 nM, the AUC(0-t) ([1]; human, plasma, oral, Fasting, read-out: AUC0-24 hrs) was 20.1 µM·h and the Tmax ([1]; human, plasma, oral, patient 20, Fasting) was 2 h. The Tmax ([1]; human, plasma, oral, patient 20, With Food) was 8 h, the Tmax ([1]; human, plasma, oral, patient 20, With Milk) was 2 h and the Tmax ([1]; human, plasma, oral, patient 21, Fasting) was 6 h. For the same molecule, the Tmax ([1]; human, plasma, oral, patient 21, With Food) was 6 h, the Tmax ([1]; human, plasma, oral, patient 21, With Milk) was 6 h and the Tmax ([1]; human, plasma, oral, patient 22, Fasting) was 8 h. For the same molecule, the Tmax ([1]; human, plasma, oral, patient 22, With Food) was 10 h, the Tmax ([1]; human, plasma, oral, patient 22, With Milk) was 8 h and the Tmax ([1]; human, plasma, oral, patient 24, With Food) was 10 h. For the same molecule, the Tmax ([1]; human, plasma, oral, patient 24, With Milk) was 6.3 h, the Tmax ([1]; human, plasma, oral, patient 27, With Food) was 6 h and the Tmax ([1]; human, plasma, oral, patient 27, With Milk) was 0.5 h. For the same molecule, the Tmax ([1]; human, plasma, oral, patient 28, With Food) was 10 h, the Tmax ([1]; human, plasma, oral, patient 28, With Milk) was 6 h and the Cmax ([1]; human, plasma, oral, with Milk) was 3050 nM. For the same molecule, the AUC(0-t) ([1]; human, plasma, oral, with Milk, read-out: AUC0-24 hrs) was 31.4 µM·h, the drug accumulation ([1]; repeated daily dosing every 28 days, doses through about 1000 mg/day) was “no evidence of drug accumulation” and the Cmax ([1]; with Milk) was 2890 nM. For the same molecule, the “AUC0-24 hrs Fold Change” value ([1]; with Milk versus Fasting) was 1.56 and 1.55, the “Cmax Fold Change” value ([1]; with Milk versus Fasting) was 1.52 and 1.13 and the AUC0-24 hrs ([1]; with Milk) was 32.16. For the same molecule, the “patients showing prolonged SD (>12 weeks)” value ([2]; RECIST 1.1) was 12 patients, the “evaluable patients with SD/MR by RECIST” value ([2]; as of Feb. 7, 2011) was 16/24 and 16 out of 24 and the progression free survival ([2]; blood drug concentration above 1 uM, diverse cancers (FIG. 23)) was “increase in progression free survival”. For the same molecule, the “patients in whom new metastatic lesions were prevented” value ([2]; of patients dosed) was 83%, the “patients showing no metastatic tumors” value ([2]; out of 24 evaluable patients with advanced refractory cancers) was “over 80%” and the “response of colon cancer metastatic lesion to kidney” value ([2]; patient 0001, 20 mg daily (FIG. 19)) was “complete regression; also recorded: signs of potent antitumor activity”. For the same molecule, the “New Lesions” value [2, 4] was 1, the regression [2, 4] was “(regression 27.6%)” and the “New Lesions” value ([2]; patient 0002, total daily dose 40 mg qd, Gastric adenocarcinoma) was 3. The “New Lesions” value ([2]; patient 0003, total daily dose 80 mg qd, Head and Neck carcinoma) was 0, the “New Lesions” value ([2]; patient 0004, total daily dose 80 mg bid, Colon adenocarcinoma) was 0 and the “New Lesions” value ([2]; patient 0006, total daily dose 160 mg bid, Lung adenocarcinoma) was 0. For the same molecule, the “New Lesions” value ([2]; patient 0008, total daily dose 320 mg bid, Colon adenocarcinoma) was 2, the “New Lesions” value ([2]; patient 0010, total daily dose 320 mg bid, Colon adenocarcinoma) was 0 and the “New Lesions” value ([2]; patient 0011, total daily dose 320 mg bid, Angiosarcoma) was 0. The “New Lesions” value ([2]; patient 0012, total daily dose 320 mg bid, Prostate cancer) was 0, the “Best Response, remark” value [2, 5] was “(signs of regression)” and the “New Lesions” value [2, 5] was 0. For the same molecule, the “Best Response, remark” value [2, 6] was “(CA 125 normalization)”, the “New Lesions” value [2, 6] was 0 and the “CEA change (Best Response, remark)” value [2, 7] was “(CEA? >30-50%)”. For the same molecule, the “New Lesions” value [2, 7] was 0, the “New Lesions” value ([2]; patient 0016, total daily dose 600 mg bid, Pancreatic adenocarcinoma) was 0 and the “Best Response, remark” value [2, 8] was “(hollow tumor)”. The “New Lesions” value [2, 8] was 0, the “New Lesions” value ([2]; patient 0021, total daily dose 800 mg bid, Chondrosarcoma) was 0 and the “New Lesions” value ([2]; patient 0022, total daily dose 800 mg bid, Prostate cancer) was 0. The “New Lesions” value ([2]; patient 0023, total daily dose 800 mg bid, Adenocorticoid) was 0, the “New Lesions” value ([2]; patient 0024, total daily dose 1000 mg bid, Rectal cancer) was 0 and the “New Lesions” value ([2]; patient 0027, total daily dose 1400 mg bid, Colon adenocarcinoma) was 2. The “New Lesions” value ([2]; patient 0032, total daily dose 200 mg tid, Colon adenocarcinoma) was 0, the “New Lesions” value ([2]; patient 0037, total daily dose 500 mg tid, Colon adenocarcinoma) was 0 and the progression free survival ([2]; patients with exposure above 1.6 uM for at least 4 hours) was “improvement in progression free survival”. The “BBI608 concentration in patient urine” value ([3]; patient 7, total daily dose 320 mg, 120-240 min post dose) was 4.3 µM, the “BBI608 concentration in patient urine” value ([3]; patient 7, total daily dose 320 mg, 360-480 min post dose) was 23.1 µM and the “BBI608 concentration in patient urine” value ([3]; patient 8, total daily dose 320 mg, 120-240 min post dose) was 7.9 µM. For the same molecule, the “BBI608 concentration in patient urine” value ([3]; patient 8, total daily dose 320 mg, 360-480 min post dose) was 1.8 µM, the “BBI608 concentration in patient urine” value ([3]; patient 9, total daily dose 320 mg, 120-240 min post dose) was 8.9 µM and the “BBI608 concentration in patient urine” value ([3]; patient 9, total daily dose 320 mg, 360-480 min post dose) was 23.6 µM. The “BBI608 concentration in patient urine” value ([3]; patient 10, total daily dose 320 mg, 120-240 min post dose) was 22.7 µM, the “BBI608 concentration in patient urine” value ([3]; patient 10, total daily dose 320 mg, 360-480 min post dose) was 26.2 µM and the “BBI608 concentration in patient urine” value ([3]; patient 11, total daily dose 320 mg, 120-240 min post dose) was 1.8 µM. The “BBI608 concentration in patient urine” value ([3]; patient 11, total daily dose 320 mg, 360-480 min post dose) was 4.5 µM, the “BBI608 concentration in patient urine” value ([3]; patient 12, total daily dose 400 mg, 120-240 min post dose) was 4.11 µM and the “BBI608 concentration in patient urine” value ([3]; patient 12, total daily dose 400 mg, 360-480 min post dose) was 3.86 µM. For the same molecule, the “BBI608 concentration in patient urine” value ([3]; patient 14, total daily dose 400 mg, 120-240 min post dose) was 1.42 µM, the “BBI608 concentration in patient urine” value ([3]; patient 14, total daily dose 400 mg, 360-480 min post dose) was 5 µM and the “BBI608 concentration in patient urine” value ([3]; patient 15, total daily dose 600 mg, 120-240 min post dose) was 3.1 µM. The “BBI608 concentration in patient urine” value ([3]; patient 15, total daily dose 600 mg, 360-480 min post dose) was 10.65 µM, the “BBI608 concentration in patient urine” value ([3]; patient 17, total daily dose 600 mg, 120-240 min post dose) was 1.66 µM and the “BBI608 concentration in patient urine” value ([3]; patient 17, total daily dose 600 mg, 360-480 min post dose) was 45.35 µM. For the same molecule, the “BBI608 concentration in patient urine” value ([3]; patient 18, total daily dose 600 mg, 120-240 min post dose) was 2.41 µM, the “BBI608 concentration in patient urine” value ([3]; patient 18, total daily dose 600 mg, 360-480 min post dose) was 6.3 µM and the “BBI608 concentration in patient urine” value ([3]; patient 20, total daily dose 800 mg, 120-240 min post dose) was 6.17 µM. The “BBI608 concentration in patient urine” value ([3]; patient 20, total daily dose 800 mg, 360-480 min post dose) was 118.25 µM, the “BBI608 concentration in patient urine” value ([3]; patient 21, total daily dose 800 mg, 120-240 min post dose) was 0.42 µM and the “BBI608 concentration in patient urine” value ([3]; patient 21, total daily dose 800 mg, 360-480 min post dose) was 7.42 µM. The “BBI608 concentration in patient urine” value ([3]; patient 23, total daily dose 800 mg, 120-240 min post dose) was 2.51 µM and the “BBI608 concentration in patient urine” value ([3]; patient 23, total daily dose 800 mg, 360-480 min post dose) was 11.97 µM.
